Measurements from US20220274947A1, “NOVEL HETEROARYL-TRIAZOLE COMPOUNDS AS PESTICIDES” (Bayer Aktiengesellschaft, priority 2019, published 2022).

How the values were obtained:
Type in all cases: in vivo
Spodoptera frugiperda = Spodoptera frugiperda spray test; conditions: in Zea mays, 168 h, read-out: activity (mortality)
Method in brief: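 Maize leaf sections were sprayed with compound formulated in acetone/DMF and diluted in water containing 1000 ppm emulsifier. Dried leaves were infested with fall armyworm larvae, and percent mortality was scored after 7 days.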

Rhipicephalus microplus [1] = test: Rhipicephalus (Boophilus) microplus in-vitro contact test, larval cattle tick, strain Parkhurst (BOOPMI Cont); conditions: application rate 5 μg/cm^2 (=500 g/ha), tick larvae, after 48 hours, read-out: activity (efficacy: 100% means all larvae are dead or moribund)
Method in brief: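 Acetone solutions dried onto glass tube walls (900 ppm giving 5 μg/cm^2); 20-50 pyrethroid-resistant Parkhurst larvae added per tube and held 48 h at 27° C., 85% relative humidity. Efficacy scored by negative geotaxis as % dead or moribund larvae.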

Rhipicephalus microplus [2] = test: Rhipicephalus (Boophilus) microplus injection test (BOOPMI Inj); conditions: 168 h, injection into adult engorged female ticks, egg deposition after 7 days, read-out: activity (efficacy: 100% means all eggs are infertile); for pest or weed control at 0.004 mg: application rate 4 μg/tick; for pest or weed control at 0.02 mg: application rate 20 μg/tick
Method in brief: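 Five engorged adult female R. microplus ticks injected into the abdomen with 1 μL of compound diluted in DMSO, then kept in a climate chamber. Fertile egg deposition checked after 7 days; eggs without visible fertility held until hatching at about 42 days. Efficacy: 100% = all eggs infertile, 0% = all fertile.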

Ctenocephalides felis = Ctenocephalides felis in-vitro contact test, adult cat flea (CTECFE Cont); conditions: application rate 5 μg/cm^2 (=500 g/ha), adult cat fleas, after 48 hours, read-out: activity (efficacy: 100% means all fleas are dead or moribund)
Method in brief: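 Acetone solutions coated on glass tube inner walls (900 ppm giving 5 μg/cm^2), then 5-10 adult fleas added and held 48 h at room temperature. Fleas unable to escape a 45-50° C. heating plate within 5 min scored dead or moribund; efficacy = % dead/moribund.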

Myzus persicae = Myzus persicae spray test; conditions: in Brassica rapa, foliar, 120 h; for mortality at 100 g/ha: read-out: activity (mortality), application rate 100 g/ha, spray, Chinese cabbage leaf disks, after 5 days; for mortality at 500 g/ha: read-out: activity (mortality), application rate 500 g/ha, spray, Chinese cabbage leaf disks, after 5 days
Method in brief: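 Compound in acetone/DMF solvent diluted in water with 1000 ppm alkylarylpolyglycol ether emulsifier, sprayed onto Chinese cabbage leaf disks infested with all instars of Myzus persicae. Mortality (%) scored after 5 days.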

Diabrotica balteata = Diabrotica balteata spray test; conditions: 168 h, wheat seeds, larvae, after 7 days, read-out: activity (efficacy: 100% means all seedlings have grown up like in the untreated, uninfected control); for pest or weed control at 32 µg/disc, 100 g/ha: application rate 100 g/ha (=32 μg/well); for pest or weed control at 160 µg/disc, 500 g/ha: application rate 500 g/ha (=160 μg/well)
Method in brief: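 Wheat seedlings, germinated 1 day on agar, were sprayed with compound in acetone/DMF diluted in water containing emulsifier, then infested with 10-20 Diabrotica balteata larvae. After 7 days efficacy in % was scored: 100% means seedlings grew like the untreated, uninfected control; 0% means none grew.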

Row | Compound | mortality at 100 g/ha (Spodoptera frugiperda) [%] | mortality at 500 g/ha (Spodoptera frugiperda) [%] | pest or weed control at 5 µg/cm2 (Rhipicephalus microplus [1]) [%] | pest or weed control at 0.004 mg (Rhipicephalus microplus [2]) [%] | pest or weed control at 0.02 mg (Rhipicephalus microplus [2]) [%] | pest or weed control at 5 µg/cm2 (Ctenocephalides felis) [%] | mortality at 100 g/ha (Myzus persicae) [%] | mortality at 500 g/ha (Myzus persicae) [%] | pest or weed control at 32 µg/disc, 100 g/ha (Diabrotica balteata) [%] | pest or weed control at 160 µg/disc, 500 g/ha (Diabrotica balteata) [%]
1 | Cc1nc([C@H](C)NC(=O)c2cc(Br)cc(C(F)(F)F)c2)n(-c2ccc(C#N)cn2)n1 [II-32] | 100 | 100 | 100 | 80 | 100 | 100 | 100 | 90 | 100 | 100
2 | C[C@H](NC(=O)c1cc(C(F)F)cc(C(F)F)c1)c1ncnn1-c1ccc(C#N)cn1 [II-101] | 100 |  | 100 | 100 |  | 100 | 90 |  | 100 | 
3 | Cc1nc([C@H](C)NC(=O)c2cc(C(F)(F)F)cc(C(F)(F)F)c2)n(-c2ccc(C(=O)N(C)CC#N)cn2)n1 [II-99] |  |  | 100 | 100 |  | 100 | 90 |  | 100 | 
4 | C[C@H](NC(=O)c1cc(Cl)cc(C(F)(F)F)c1)c1ncnn1-c1ccc(N(C)C(=O)C2CC2)cn1 [II-79] | 100 |  | 100 | 100 |  | 100 | 100 |  | 100 | 
5 | CCc1nc([C@H](C)NC(=O)c2cc(C(F)(F)F)cc(C(F)(F)F)c2)n(-c2ccc(C#N)cn2)n1 [I-1] | 100 | 100 | 100 | 100 | 100 | 90 |  |  | 100 | 100
6 | C[C@H](NC(=O)c1cc(C(F)(F)F)cc(C(F)(F)F)c1)c1ncnn1-c1ccc(C(N)=O)cn1 [II-81] | 100 |  | 100 | 100 |  | 100 | 90 |  | 80 | 
7 | CCc1nc([C@H](C)NC(=O)c2cc(Cl)cc(Cl)c2)n(-c2ccc(C#N)cn2)n1 [I-2] | 100 | 100 | 100 | 100 | 100 | 100 |  |  | 100 | 100
8 | C[C@H](NC(=O)c1cc(Br)cc(OC(F)(F)F)c1)c1ncnn1-c1ccc(C#N)cn1 [II-14] | 100 | 100 | 100 | 100 | 100 | 100 |  |  | 100 | 100
9 | Cc1nc([C@H](C)NC(=O)c2cc(Cl)cc(C(F)F)c2)n(-c2ccc(C#N)cn2)n1 [II-65] | 100 |  | 100 | 100 | 100 | 100 | 90 |  | 80 | 
10 | Cc1nc([C@H](C)NC(=O)c2cc(Br)cc(OC(F)(F)F)c2)n(-c2ccc(C#N)cn2)n1 [II-47] | 100 |  | 100 | 100 | 100 | 100 | 100 |  | 100 | 
11 | C[C@H](NC(=O)c1cc(OC(F)F)cc(C(F)F)c1)c1ncnn1-c1ccc(C#N)cn1 [II-116] | 100 |  | 100 | 100 |  | 100 | 90 |  | 100 | 
12 | CCN(C)C(=O)c1ccc(-n2nc(C)nc2[C@H](C)NC(=O)c2cc(C(F)(F)F)cc(C(F)(F)F)c2)nc1 [II-97] | 100 |  | 100 | 100 |  | 100 | 100 |  | 100 | 
13 | Cc1nc([C@H](C)NC(=O)c2cc(C#N)cc(C(F)(F)F)c2)n(-c2ccc(C#N)cn2)n1 [II-53] | 100 |  | 100 | 100 | 100 | 100 | 100 |  | 100 | 
14 | C[C@H](NC(=O)c1cc(OC(F)(F)F)cc(C(F)F)c1)c1ncnn1-c1ccc(C#N)cn1 [II-111] | 100 |  | 100 | 100 |  | 100 |  |  | 100 | 
15 | Cc1nc([C@H](C)NC(=O)c2cc(Br)cc(C#N)c2)n(-c2ccc(C#N)cn2)n1 [II-54] | 100 |  | 100 | 100 | 100 | 100 | 90 |  | 100 | 
16 | C[C@H](NC(=O)c1cc(Br)cc(C(F)F)c1)c1ncnn1-c1ccc(C#N)cn1 [II-83] | 100 |  | 90 | 100 |  | 100 | 90 |  | 100 | 
17 | C[C@H](NC(=O)c1cc(C(F)(F)F)cc(C(F)(F)F)c1)c1ncnn1-c1ccc(C(=O)N(C)CC2CC2)cn1 [II-73] | 100 | 100 | 100 | 100 | 100 | 100 | 100 | 100 | 100 | 100
18 | Cc1nc([C@H](C)NC(=O)c2cc(C(F)(F)F)cc(C(F)(F)F)c2)n(-c2ccc(C(=O)N(C)C3CC3)cn2)n1 [II-96] | 100 |  | 100 | 100 |  | 100 | 90 |  | 100 | 
19 | C[C@H](NC(=O)c1cc(OC(F)F)cc(OC(F)F)c1)c1ncnn1-c1ccc(C#N)cn1 [II-77] | 100 |  | 90 | 80 |  | 100 | 90 |  | 100 | 
20 | Cc1nc([C@H](C)NC(=O)c2cc(Cl)cc(C#N)c2)n(-c2ccc(C#N)cn2)n1 [II-61] | 100 |  | 100 | 100 | 100 | 100 | 90 |  | 100 | 
21 | Cc1nc([C@H](C)NC(=O)c2cc(OC(F)(F)F)cc(C(F)F)c2)n(-c2ccc(C#N)cn2)n1 [II-117] | 100 |  | 100 | 100 |  | 100 | 100 |  | 100 | 
22 | CC(C)c1nc([C@H](C)NC(=O)c2cncc(C(F)(F)F)c2)n(-c2ccc(C#N)cn2)n1 [I-30] | 100 |  | 100 | 100 | 100 | 80 |  |  | 100 | 
